The values below come from patent US20050228052A1, “Methods of treating, preventing and managing a sleep disorder using (S)-didesmethylsibutramine” (priority 2004, published 2005).

For assay [1], the target named is T1, human recombinant norepinephrine (NE) uptake site (Homo sapiens, UniProt P23975).
T1 construct: expressed in transfected cells
Description: Binding at the norepinephrine (NE) uptake site.

In assay [2] the test system is nonselective muscarinic receptor. The assay can be described thus: Binding at the nonselective muscarinic receptor. On the set-up: species or system rat.
The target in assay [3] is serotonin (5-HT) uptake site (Rattus norvegicus, UniProt P31652). The conditions noted are these: summary of the table data. How it is done:
IC50 values (concentration required to inhibit 50% specific binding) were then determined by nonlinear regression analysis of the curves and tabulated below.

Structures are written as SMILES. Like-named read-outs stand apart in the source and are kept apart here.

T1 sequence (P23975 whole entry): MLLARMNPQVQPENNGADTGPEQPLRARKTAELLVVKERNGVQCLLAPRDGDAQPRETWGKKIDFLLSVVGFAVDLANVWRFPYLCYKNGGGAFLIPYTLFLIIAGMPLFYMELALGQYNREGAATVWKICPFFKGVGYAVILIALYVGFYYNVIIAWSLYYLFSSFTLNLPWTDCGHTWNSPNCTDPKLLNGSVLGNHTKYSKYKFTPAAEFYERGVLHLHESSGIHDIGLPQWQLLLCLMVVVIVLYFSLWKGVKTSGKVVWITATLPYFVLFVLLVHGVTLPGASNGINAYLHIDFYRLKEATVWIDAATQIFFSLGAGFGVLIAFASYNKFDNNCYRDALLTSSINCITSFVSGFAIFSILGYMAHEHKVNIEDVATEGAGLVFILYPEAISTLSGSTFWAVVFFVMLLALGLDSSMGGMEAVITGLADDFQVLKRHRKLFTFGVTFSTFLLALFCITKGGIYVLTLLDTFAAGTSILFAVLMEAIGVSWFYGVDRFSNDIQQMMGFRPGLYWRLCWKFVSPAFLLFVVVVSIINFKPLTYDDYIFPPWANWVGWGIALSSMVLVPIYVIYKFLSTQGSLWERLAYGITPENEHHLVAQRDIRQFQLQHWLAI
serotonin (5-HT) uptake site, sequence (P31652 whole entry): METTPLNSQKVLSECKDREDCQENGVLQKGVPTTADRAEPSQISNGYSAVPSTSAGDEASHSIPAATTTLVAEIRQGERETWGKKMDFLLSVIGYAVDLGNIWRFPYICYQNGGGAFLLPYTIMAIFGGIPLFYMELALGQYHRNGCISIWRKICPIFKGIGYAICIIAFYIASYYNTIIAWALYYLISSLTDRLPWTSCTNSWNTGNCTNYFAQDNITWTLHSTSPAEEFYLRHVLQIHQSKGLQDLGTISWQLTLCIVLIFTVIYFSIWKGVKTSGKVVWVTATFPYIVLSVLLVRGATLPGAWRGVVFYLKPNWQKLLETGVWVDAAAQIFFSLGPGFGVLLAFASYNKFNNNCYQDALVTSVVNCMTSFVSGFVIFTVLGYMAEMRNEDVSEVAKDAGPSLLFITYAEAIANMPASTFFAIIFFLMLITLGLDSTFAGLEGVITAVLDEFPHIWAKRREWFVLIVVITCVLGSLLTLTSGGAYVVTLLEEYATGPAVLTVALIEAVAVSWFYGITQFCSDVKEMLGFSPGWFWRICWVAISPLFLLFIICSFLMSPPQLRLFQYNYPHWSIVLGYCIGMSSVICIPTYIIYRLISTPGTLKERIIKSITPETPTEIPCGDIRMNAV

Consider `CC(C)CC(N)C1(c2ccc(Cl)cc2)CCC1` (racemic) [(R/S)-DDMS], for which the IC50 in assay [1] (human recombinant NE uptake site, single value or first value before slash, read-out: Binding IC50 Values (nM) NE Uptake) turned out to be 16 nM.
Consider `CC(C)C[C@@H](N)C1(c2ccc(Cl)cc2)CCC1` [(R)-DDMS], for which the IC50 in assay [1] was found to be 13 nM.
For the compound `CC(C)C[C@H](N)C1(c2ccc(Cl)cc2)CCC1` [(S)-DDMS, 1-[1-(4-chlorophenyl)cyclobutyl]-3-methyl-butylamine], the “Affinity for the muscarinic site, result in words” value in assay [2] (summary of the table data) was “without appreciable 5-HT or muscarinic activity”. In assay [1], the IC50 stood at 6.2 nM. For the same compound, the “NE uptake site binding, result in words” value in assay [1] (summary of the table data) is recorded as “potent inhibitor of NE uptake”. Further, the “5-HT uptake site binding, result in words” value in assay [3] is “without appreciable 5-HT or muscarinic activity”.
For the compound `CN1[C@@H]2CC[C@H]1C[C@@H](OC(=O)C(CO)c1ccccc1)C2` (stereo partly shown) [Atropine, reference compound], the half-inhibitory concentration (IC50) in assay [2] (rat cerebral cortex, inhibition of specific binding, competition curves, read-out: Binding IC50 Values (nM) Mucarinic Receptor) was determined as 0.31 nM.

As usually defined, the IC50 is the concentration at which inhibition is half-maximal.
